In patent US8946275B2, “Treatment of cancer using hypoxia activated prodrugs” (Threshold Pharmaceuticals, Inc., priority 2008, dated 2015):

How the values were obtained:
[1] = test system: small cell lung cancer (SCLC); assay: TH-302 monotherapy in patients with lung cancer (SCLC); format: in vivo, human
Method: Eight subjects with SCLC have been treated with TH-302 monotherapy at initial doses of 480 mg/m^2 to 670 mg/m^2 as part of a 3 consecutive week dosing regimen repeated every 4 weeks (this excludes one subject dosed at 60 mg/m^2 during the initial dose escalation). RECIST tumor assessments were performed initially for seven subjects. […] One of the seven subjects continued on-study for additional cycles of treatment.
In this study, a person suffering from a lung cancer (a refractory small cell lung cancer) that had metastasized to liver was treated as follows. Lyophilized TH-302 was diluted with D5W and administered to the patient at an amount of 480 mg/m^2, according to the following 4 week dosing cycle: TH-302 was administered once every week for 3 weeks, on days 1, 8, and 15, followed by a week of no TH-302 administration. The patient was administered 2 cycles (i.e. 6 doses) of TH-302, and the lung and liver cancers assessed by a computed tomography (or CT) scan. […] LDH had decreased 72%, and liver function tests had normalized.

Calu6 NSCLC = assay: Calu-6 ectopic tumor model, TH-302 with doxorubicin; format: in vivo, nude mice; conditions: Dox 4 mg/kg IV Q7Dx2; TH-302 50 mg/kg IP QDx5/wkx2wks; alone or combined
HT29 colon cancer = assay: HT-29 ectopic tumor model, TH-302 with 5FU; format: in vivo, nude mice
H460 NSCLC = assay: H460 ectopic lung cancer model, TH-302 with pemetrexed; format: in vivo, nude mice; conditions: PMX 150 mg/kg 1/wkx2wks IP; TH-302 50 mg/kg 5/wkx2wks IP; alone or combined
Method: Anti-tumor activity was evaluated by tumor growth inhibition (TGI) and tumor growth delay (TGD). Body weight change, gross and microscopic assessment of tissue changes, and hematologic assays served for toxicity assessment.
Testing in these models was conducted generally as follows. 1×10^6 H460 human non-small cell lung cancer or HT1080 human fibrosarcoma cells were implanted in the subcutaneous space of the right flank to obtain ectopic xenograft models. For the orthotopic pancreatic model, red-fluorescent protein (RFP) expressing MIA PaCa2 tumors were surgically implanted on the surface of the pancreas. The prostate metastatic model was created by the intraventricular injection of 3×10^6 luciferase-expressing PC-3 cells. […] API grade of TH-302 was used in all experiments while docetaxel, gemcitabine, doxorubicin and pemetrexed were purchased from commercial sources.

[2] = test system: H460 human non-small cell lung cancer; assay: H460 ectopic xenograft, TH-302/docetaxel dosing schedules; format: in vivo, nude mice; conditions: single agent, TH-302 100 mg/kg ip once or Docetaxol 10 mg/kg iv once
Method: Anti-tumor activity was evaluated by tumor growth delay (TGD) and tumor growth inhibition (TGI). Body weight change, gross and microscopic assessment of tissue changes, and hematologic assays served for toxicity assessment. Testing in these models was conducted generally as follows. 1×10^6 (H460 human non-small cell lung cancer or HT1080 human fibrosarcoma cells) or 3×10^6 (PC-3 human prostate cancer cells) were implanted in the subcutaneous space of the right flank to obtain ectopic xenograft models. Randomization and dosing was initiated when tumors reached a certain size (100-150 mm^3). API grade of TH-302 was used in all experiments while docetaxel, gemcitabine, cisplatin, pemetrexed, and doxorubicin were purchased from commercial sources.
The H460 cells were prepared in 30% Matrigel and 70%. RPMI1640. Mice were anesthetized by isoflurane and were implanted subcutaneously with 1×10^6 cells (in 200 μl) at the flank position. We selected 110 mice bearing similar size tumors (˜100 mm^3) for the study. Mice bearing similar tumor size were randomly assigned into different groups. Treatment started on day 1 (7 days after tumor implantation) except as noted. […] Animals were observed daily and tumor measurements and body weights recorded twice weekly.

[3] = test system: PC-3 human prostate cancer cells; assay: PC-3 ectopic xenograft, TH-302/docetaxel dosing schedules; format: in vivo, nude mice; conditions: single agent, TH-302 150 mg/kg ip once or Docetaxol 10 mg/kg iv once
[4] = 480-670 mg/m^2, weekly x3 every 4 weeks, seven subjects assessed
[5] = one refractory SCLC patient, 480 mg/m^2, 2 cycles
[6] = 5-FU 50 mg/kg IV Q3Dx4, TH-302 150 mg/kg IP Q7Dx3, alone or combined
[7] = TH-302 100 mg/kg IP Q3Dx5, alone or + 5-FU 50 mg/kg IV Q3Dx4

Cn1c(COP(=O)(NCCBr)NCCBr)cnc1[N+](=O)[O-] [TH-302, (2-bromoethyl)({[(2-bromoethyl)amino][(2-nitro-3-methylimidazol-4-yl)methoxy]phosphoryl})amine]
Partial responses (RECIST) [1, 4]: Two of seven subjects | Stable disease (RECIST) [1, 4]: three of these same seven subjects | Decrease in sum of the longest diameters [SLD] of target lesions [1, 5]: 44% | LDH decrease [1, 5]: 72% | Reduction in area of cancer in lung and liver [1, 5]: over 50% | Response ([1]; three other patients with lung cancer (one NSCLC, 2 SCLC)): stable disease | Days to 500 mm^3 (Calu6 NSCLC): 29 days | Days to 1000 mm^3 (Calu6 NSCLC): 39 days | T/C (Calu6 NSCLC): 59.2% | TGD500, Days (vs. vehicle) (Calu6 NSCLC): 11 days | TGD1000, Days (vs. vehicle) (Calu6 NSCLC): 8 days | TGI (Calu6 NSCLC): 40.8% | Tn (tumor volume on Day n) (Calu6 NSCLC): 695.67 | Days to 500 mm^3 (HT29 colon cancer; [6]): 28 days | Days to 1000 mm^3 (HT29 colon cancer; [6]): 46 days | T/C (HT29 colon cancer; [6]): 48.4% | TGD500, Days (vs. vehicle) (HT29 colon cancer; [6]): 6 days | TGD1000, Days (vs. vehicle) (HT29 colon cancer; [6]): 14 days | TGI (HT29 colon cancer; [6]): 51.6% | Tn (tumor volume on Day n) (HT29 colon cancer; [6]): 565.70 | Days to 500 mm^3 (HT29 colon cancer; [7]): 29 days | Days to 1000 mm^3 (HT29 colon cancer; [7]): 41 days | T/C (HT29 colon cancer; [7]): 52.0% | TGD500, Days (vs. vehicle) (HT29 colon cancer; [7]): 7 days | TGD1000, Days (vs. vehicle) (HT29 colon cancer; [7]): 9 days | TGI (HT29 colon cancer; [7]): 48.0% | Tn (tumor volume on Day n) (HT29 colon cancer; [7]): 580.55 | Days to 500 mm^3 (H460 NSCLC): 26 days | Days to 1000 mm^3 (H460 NSCLC): 34 days | T/C (H460 NSCLC): 38.4% | TGD500, Days (vs. vehicle) (H460 NSCLC): 12 days | TGD1000, Days (vs. vehicle) (H460 NSCLC): 10 days | TGI (H460 NSCLC): 61.6% | Tn (tumor volume on Day n) (H460 NSCLC): 507.13 | Days to 500 mm^3 [2]: 21 days | Days to 1000 mm^3 [2]: 31 days | T/C [2]: 42.5% | TGD500, Days (vs. vehicle) [2]: 8 days | TGD1000, Days (vs. vehicle) [2]: 11 days | TGI [2]: 57.5% | Tn (tumor volume on Day n) ([2]; in mm³): 531.74 | Days to 500 mm^3 [3]: 25 days | T/C [3]: 48.7% | TGD500, Days (vs. vehicle) [3]: 9 days | TGI [3]: 51.3% | Tn (tumor volume on Day n) ([3]; in mm³): 559.95
